Test results published in patent publication US9090538B2, “Uses of esteramide compounds” (priority 2010, dated 2015).

Assays:
Type in all cases: physicochemical
Parameters in all cases: key: Crystal: When the formation of active crystals is observed, the term of <> is indicated; Limpid: When the solution remains limpid (absence of solid or cloudiness), it is the term of <> which is indicated
[1] = Visual observation at 0° C. with nucleation (crystal of pure active introduced, 7 more days at 0° C.); conditions: crystal of active added
Description: (§1) Formulations were made by diluting various actives, reported below in the table, in the compounds 1-4 synthesized above.
3) Visual observation at 0° C. with nucleation (by introducing a crystal of the pure active into the liquid)
A crystal of the active material is introduced into the formulation which has spent 7 days at 0° C. for nucleation, and the formulation is again placed for 7 days at 0° C. The aspect of the formulation is noted and the presence of crystals or the growth of the introduced crystal is possibly located.
(§2) The actives used are commercially available.

[2] = Visual observation at 25° C. of formulation of active in solvent
Description: as §1
1) Visual observation at 25° C.
The aspect of the formulation is noted and the presence of crystals is possibly located.
as §2

[3] = Visual observation at 0° C. after 7 days (CIPAC MT39 test); conditions: 7 days at 0° C.
Description: as §1
2) Visual observation at 0° C.
The formulation is placed at 0° C. for 7 days and the aspect of the formulation is noted and the presence of crystals is possibly located (CIPAC MT39 test).
as §2

[4] = active Alachlor 48% EC in the compound as solvent
[5] = active Difenconazole 25% EC in the compound as solvent
[6] = active Phenmedipham 16% EC in the compound as solvent
[7] = active Propanil 36% EC in the compound as solvent
[8] = active Propuxur 20% EC in the compound as solvent
[9] = active alpha-Cypermethrin 10% EC in the compound as solvent
[10] = active Azoxystrobine 25% EC in the compound as solvent
[11] = active Dimethoate 40% EC in the compound as solvent
[12] = active Oxyfluorfen 22% EC in the compound as solvent
[13] = active Pendimethalin 33% EC in the compound as solvent
[14] = active Tebuconazole 25% EC in the compound as solvent
[15] = active Trifluralin 40% EC in the compound as solvent
[16] = active Chlorpyrifos 40% EC in the compound as solvent

| Structure (SMILES) | Aspect at 0° C. with nucleation [1, 4] | Aspect at 0° C. with nucleation [1, 5] | Aspect at 0° C. with nucleation [1, 7] | Aspect at 0° C. with nucleation [1, 9] | Aspect at 25° C. [2, 4] | Aspect at 25° C. [2, 5] | Aspect at 25° C. [2, 11] | Aspect at 25° C. [2, 12] | Aspect at 25° C. [2, 13] | Aspect at 25° C. [2, 7] | Aspect at 25° C. [2, 8] | Aspect at 25° C. [2, 15] | Aspect at 25° C. [2, 9] | Aspect at 0° C. [3, 4] | Aspect at 0° C. [3, 5] | Aspect at 0° C. [3, 11] | Aspect at 0° C. [3, 12] | Aspect at 0° C. [3, 13] | Aspect at 0° C. [3, 7] | Aspect at 0° C. [3, 15] | also measured |
| --- | --- | --- | --- | --- | --- | --- | --- | --- | --- | --- | --- | --- | --- | --- | --- | --- | --- | --- | --- | --- | --- |
| COC(=O)C(=O)N(C)C [Compound 1, methyl 2-(dimethylamino)-2-oxoacetate] | Limpid | Limpid | Limpid | Limpid | Limpid | Limpid | Limpid | Limpid | Limpid | Limpid | Limpid | Limpid | Limpid | Limpid | Limpid | Crystal | Crystal | Crystal | Limpid | Crystal | Aspect at 0° C. with nucleation [1, 6]: Limpid; Aspect at 0° C. with nucleation [1, 8]: Limpid; Aspect at 25° C. [2, 10]: Limpid; Aspect at 25° C. [2, 6]: Limpid; Aspect at 25° C. [2, 14]: Limpid; Aspect at 0° C. [3, 10]: Crystal; Aspect at 0° C. [3, 6]: Limpid; Aspect at 0° C. [3, 8]: Limpid; Aspect at 0° C. [3, 14]: Crystal; Aspect at 0° C. [3, 9]: Limpid |
| CCOC(=O)C(=O)N(C)C [Compound 2, ethyl 2-(dimethylamino)-2-oxoacetate] | Limpid | Limpid | Limpid | Limpid | Limpid | Limpid | Limpid | Limpid | Limpid | Limpid | Limpid | Limpid | Limpid | Limpid | Limpid | Limpid | Limpid | Crystal | Limpid | Limpid | Aspect at 0° C. with nucleation [1, 16]: Limpid; Aspect at 0° C. with nucleation [1, 11]: Crystal; Aspect at 0° C. with nucleation [1, 12]: Limpid; Aspect at 0° C. with nucleation [1, 6]: Limpid; Aspect at 0° C. with nucleation [1, 15]: Limpid; Aspect at 25° C. [2, 10]: Limpid; Aspect at 25° C. [2, 16]: Limpid; Aspect at 25° C. [2, 6]: Limpid; Aspect at 25° C. [2, 14]: Limpid; Aspect at 0° C. [3, 10]: Crystal; Aspect at 0° C. [3, 16]: Limpid; Aspect at 0° C. [3, 6]: Limpid; Aspect at 0° C. [3, 8]: Crystal; Aspect at 0° C. [3, 14]: Crystal; Aspect at 0° C. [3, 9]: Limpid |
| CCCCC(CC)COC(=O)C(=O)N(C)C (centres unmarked) [Compound 3, 2-ethyl-hexyl 2-(dimethylamino)-2-oxoacetate] | Limpid | Limpid | Limpid | Limpid | Limpid | Limpid | Limpid | Limpid | Limpid | Limpid | Limpid | Limpid | Limpid | Limpid | Limpid | Crystal | Limpid | Crystal | Limpid | Limpid | Aspect at 0° C. with nucleation [1, 16]: Limpid; Aspect at 0° C. with nucleation [1, 12]: Crystal; Aspect at 0° C. with nucleation [1, 15]: Limpid; Aspect at 25° C. [2, 16]: Limpid; Aspect at 0° C. [3, 16]: Limpid; Aspect at 0° C. [3, 8]: Crystal; Aspect at 0° C. [3, 9]: Limpid |
| CCCCCCCCCCOC(=O)C(=O)N(C)C [Compound 4, n-decyl 2-(dimethylamino)-2-oxoacetate] | Limpid | Limpid | – | – | Limpid | Limpid | – | Limpid | – | Limpid | – | Limpid | – | Limpid | Limpid | – | Crystal | – | Crystal | Limpid | Aspect at 0° C. with nucleation [1, 15]: Limpid; Aspect at 25° C. [2, 16]: Limpid; Aspect at 0° C. [3, 16]: Crystal |
